Results taken from US7803930B2, “Antisense modulation of apolipoprotein B-expression” (Isis Pharmaceuticals, Inc., priority 2002, dated 2010).

Columns and labels:
Type in all cases: cell-based
[1] = test system: apolipoprotein B protein; experiment: Apolipoprotein B protein secreted from primary Cynomolgous monkey hepatocytes, ELISA; settings: primary Cynomolgous hepatocytes
Experimental: Apolipoprotein B protein secreted from primary Cynomolgous hepatocytes treated with 150 and 300 nM of oligonucleotide was measured by ELISA using an apolipoprotein B protein specific kit (ALerCHEK Inc., Portland, Me.). Each result represents the average of 3 experiments.
Apolipoprotein B protein secreted primary Cynomolgous hepatocytes treated with 50 and 150 nM of ISIS 315089 and ISIS 281625 was measured by ELISA using an apolipoprotein B protein specific kit (ALerCHEK Inc., Portland, Me.). Each result represents the average of 3 experiments.
Apolipoprotein B protein secreted from primary Cynomolgous hepatocytes treated with 50 and 150 nM of ISIS 271009 and ISIS 301027 was measured by ELISA using an apolipoprotein B protein specific kit (ALerCHEK Inc., Portland, Me.). Each result represents the average of 3 experiments.

[2] = test system: lipoprotein(a); experiment: Lipoprotein(a) particle secretion from primary human hepatocytes, ELISA; settings: 150 nM, 24 hours
Experimental: Primary human hepatocytes (InVitro Technologies, Baltimore, Md.), cultured and transfected as described herein, were treated for 24 hours with 50 or 150 nM of ISIS 271009 (SEQ ID NO: 319), 281625 (SEQ ID NO: 224), 301012 (SEQ ID NO: 247) or 301027 (SEQ ID NO: 262). Cells were also treated with 150 nM of the control oligonucleotides ISIS 113529 (SEQ ID NO: 859) or ISIS 13650 (SEQ ID NO: 806). Untreated cells served as a control. Following 24 hours of oligonucleotide treatment, the amount of lipoprotein(a) in the culture medium collected from the treated cells was measured using a commercially available ELISA kit (ALerCHEK Inc., Portland, Me.). The results are the average of three experiments and are expressed as percent change in lipoprotein(a) secretion relative to untreated controls.

[3] = test system: human apolipoprotein(a) mRNA; experiment: Apolipoprotein(a) mRNA expression in primary human hepatocytes, real-time PCR; settings: primary human hepatocytes, 24 hours
Experimental: Primary human hepatocytes (InVitro Technologies, Baltimore, Md.), cultured and transfected as described herein, were treated with 5, 10, 50 or 150 nM of ISIS 271009 (SEQ ID NO: 319), 281625 (SEQ ID NO: 224), 301012 (SEQ ID NO: 247) or 301027 (SEQ ID NO: 262). Cells were also treated with 50 or 150 nM of the control oligonucleotides ISIS 113529 (SEQ ID NO: 859) or ISIS 13650 (SEQ ID NO: 806). Untreated cells served as a control. Following 24 hours of oligonucleotide treatment, apolipoprotein(a) mRNA expression was measured by quantitative real-time PCR as described in other examples herein.
Probes and primers to human apolipoprotein(a) were designed to hybridize to a human apolipoprotein(a) sequence, using published sequence information (GenBank accession number NM_005577.1, incorporated herein as SEQ ID NO: 860). For human apolipoprotein(a) the PCR primers were: […]
forward primer: […] (SEQ ID NO: 861)
reverse primer: TGCGTCTGAGCATTGCGT (SEQ ID NO: 862) and the PCR probe was: FAM-[…]-TAMRA (SEQ ID NO: 863) where FAM is the fluorescent dye and TAMRA is the quencher dye.
Data are the average of three experiments and are expressed as percent inhibition relative to untreated controls.

[4] = test system: Cynomolgous monkey apolipoprotein B mRNA; experiment: Apolipoprotein B mRNA in primary Cynomolgous monkey hepatocytes, real-time PCR; settings: primary Cynomolgous monkey hepatocytes, 24 hours (Table 46)
Experimental: Antisense inhibition by ISIS 301012 was compared to that of ISIS 326358, which is a perfect match to the Cynomolgous monkey apolipoprotein B sequence to which ISIS 301012 hybridizes. The compounds were analyzed for their effect on Cynomolgous monkey apolipoprotein B mRNA levels in primary Cynomolgous monkey hepatocytes purchased from In Vitro Technologies ([…].). Pre-plated primary Cynonomolgous monkey hepatocytes were purchased from InVitro Technologies (Baltimore, Md.). Cells were cultured in high-glucose DMEM (Invitrogen Corporation, Carlsbad, Calif.) supplemented with 10% fetal bovine serum (Invitrogen Corporation, Carlsbad, Calif.), 100 units/mL and 100 μg/mL streptomycin (Invitrogen Corporation, Carlsbad, Calif.).
Primary Cynomolgous monkey hepatocytes were treated with 10, 50, 150 or 300 nM of antisense oligonucleotides for 48 hours. ISIS 113529 (SEQ ID NO: 859) was used as a control oligonucleotide. Untreated cells also served as a control. Cynomolgous monkey apolipoprotein B mRNA levels were quantitated by real-time PCR using the human apolipoprotein B and GAPDH primers and probes described by other examples herein. The results, shown in Table 44, are the average of 6 experiments and are expressed as percent inhibition of apolipoprotein B mRNA normalized to untreated control cells.
In a further embodiment of the invention, antisense inhibition by ISIS 281625 was compared to that by ISIS 315089, which is a perfect match to the Cynomolgous monkey apolipoprotein B sequence to which ISIS 281625 hybridizes. Primary Cynomolgous monkey hepatocytes, cultured as described herein, were treated with 10, 50, 150 or 300 nM of ISIS 315089 or ISIS 281625 for 24 hours. Cells were treated with the control oligonucleotide ISIS 13650 (SEQ ID NO: 806) at 150 and 300 nM or ISIS 113529 (SEQ ID NO: 859) at 300 nM. Untreated cells also served as a control. Cynomolgous monkey apolipoprotein B mRNA levels in primary Cynomolgous monkey hepatocytes was quantitated using real-time PCR with human primers and probe as described by other examples herein. The results, shown in Table 46, are the average of 3 experiments and are expressed as percent inhibition of apolipoprotein B mRNA normalized to untreated control cells.
ISIS 271009 (SEQ ID NO: 319) and ISIS 301027 (SEQ ID NO: 262) were also tested for their effects on apolipoprotein B mRNA and protein expression in Cynomolgous primary hepatoctyes. Cells, cultured as described herein, were treated with 10, 50 and 150 nM of ISIS 271009 or ISIS 301027 for 24 hours. Cells were treated with the control oligonucleotide ISIS 113529 (SEQ ID NO: 859) at 150 nM. Untreated cells also served as a control. Cynomolgous monkey apolipoprotein B mRNA levels in primary Cynomolgous monkey hepatocytes was quantitated using real-time PCR with human primers and probe as described by other examples herein. The results, shown in Table 48, are the average of 2 experiments and are expressed as percent inhibition of apolipoprotein B mRNA normalized to untreated control cells.

## 13650 (TCCCGCCTGTGACATGCATT; listed as DNA, chemistry not given here) [compound 13650]
[1]; 50 nM (Table 47)
  % Reduction of monkey apolipoprotein B protein secretion: 16%
[1]; 150 nM (Table 47)
  % Reduction of monkey apolipoprotein B protein secretion: 13%
[1]; 150 nM (Table 49), "+" = secretion increased
  % Reduction of monkey apolipoprotein B protein secretion: +1%
[2]
  % Change in lipoprotein(a) secretion: +14%
[3]; 50 nM
  % Change in apolipoprotein(a) mRNA expression following antisense inhibition of apolipoprotein B: −68%
[3]; 150 nM
  % Change in apolipoprotein(a) mRNA expression following antisense inhibition of apolipoprotein B: −37%
[4]; 150 nM, "+" = expression increased
  % Inhibition of apolipoprotein B mRNA: +50%
[4]; 300 nM
  % Inhibition of apolipoprotein B mRNA: 33%
